Earlier results in publication PMC7413516, “Antidepressant-like activity and safety profile evaluation of 1H-imidazo[2,1-f]purine-2,4(3H,8H)-dione derivatives as 5-HT1A receptor partial agonists” (PLoS ONE, 2020).

Molecular target: serotonergic 5-HT7 receptor (5-HT7R)
Set-up: method as in PMID 27353547
Details: ref [8]; cited from earlier work

## Cn1c(=O)c2c(nc3n(CCCCN4CCN(c5ccccc5F)CC4)ccn23)n(C)c1=O [AZ-853, 8-(4-(4-(2-fluorophenyl)piperazin-1-yl)butyl)-1,3-dimethyl-1H-imidazo[2,1-f]purine-2,4(3H,8H)-dione]
  Ki: 0.508 µM

## Cn1c(=O)c2c(nc3n(CCCCN4CCN(c5cccc(C(F)(F)F)c5)CC4)ccn23)n(C)c1=O [AZ-861, 1,3-dimethyl-8-(4-(4-(3-(trifluoromethyl)phenyl)piperazin-1-yl)butyl)-1H-imidazo[2,1-f]purine-2,4(3H,8H)-dione]
  Ki: 0.136 µM
